Here are results for 26 compounds from ChEMBL document CHEMBL4706481, “Optimization and evaluation of novel tetrahydropyrido[4,3-d]pyrimidine derivatives as ATX inhibitors for cardiac and hepatic fibrosis” (Eur J Med Chem, 2020).

Test [1] can be described thus: Antiproliferative activity against Wistar/Sprague-Dawley rat cardiac fibroblasts assessed as inhibition of cell proliferation at 10 uM measured after 24 hrs by MTT assay relative to control. Conditions: Fibroblast. It counts as functional, CF [Rat heart fibroblast]. (Tetrazolium dyes change colour on reduction, which living cells bring about.)
Test [2] has as its target T1, Autotaxin (Homo sapiens, UniProt Q13822). The experiment in a line: Inhibition of glycosylated human ATX using FS-3 as substrate preincubated for 45 mins under shaking condition followed by substrate addition and measured after 45 mins by fluorescence assay.
A short description of test [3]: Antiproliferative activity against Sprague-Dawley rat T-HSC/Cl-6 assessed as inhibition of cell proliferation at 10 uM measured after 24 hrs by MTT assay relative to control. It counts as functional.
The nature of test [4]: Antiproliferative activity against Sprague-Dawley rat T-HSC/Cl-6 assessed as inhibition of cell proliferation measured after 24 hrs by MTT assay. Conditions: T-HSC/Cl-6, 24 h. It counts as functional.
Test [5] can be described thus: Antiproliferative activity against Wistar/Sprague-Dawley rat cardiac fibroblasts assessed as inhibition of cell proliferation measured after 24 hrs by MTT assay. It counts as functional, CF [Rat heart fibroblast]. Conditions: Fibroblast.
The test system of the next test is Cardiac fibroblast. The experiment in a line: Antifibrotic activity against TGFbeta-induced fibrosis in mouse cardiac fibroblasts assessed as reduction in collagen content at 10 ug/ml pretreated with TGFbeta followed by compound treatment and measured after 12 hrs by SDS-PAGE analysis. It counts as functional. Conditions: dose 10.0 µg/ml.
Test [6] is described as follows: Antifibrotic activity against TGFbeta-induced fibrosis in mouse cardiac fibroblasts assessed as reduction in collagen content at 10 ug/ml pretreated with TGFbeta followed by compound treatment and measured after 12 hrs by SDS-PAGE analysis relative to control. Also on record: scale not given: the % may be the effect or the level left. It counts as functional, Cardiac fibroblast. Conditions: dose 10 µg/ml.

Test [7] concerns Mus musculus. Briefly: Antifibrotic activity against CCl4-induced fibrosis in Kunming mouse assessed as loss of fiber accumulation at 40 mg/kg, po administered for 2 weeks post CCl-4 challenge by Masson staining based light microscopic analysis. It counts as functional, organism-based.
The test system of test [8] is Mus musculus. The experiment in a line: Antifibrotic activity against CCl4-induced fibrosis in Kunming mouse assessed as loss of bile ductules at 40 mg/kg, po administered for 2 weeks post CCl-4 challenge by hematoxylin and eosin staining based light microscopic analysis. It counts as functional, organism-based.
The subject of test [9] is Mus musculus. Briefly: Antifibrotic activity against CCl4-induced fibrosis in Kunming mouse assessed as decrease in steatosis at 20 mg/kg, po administered for 2 weeks post CCl-4 challenge by hematoxylin and eosin staining based light microscopic analysis. It counts as functional, organism-based.
Test [10] has as its system Mus musculus. Briefly: Antifibrotic activity against CCl4-induced fibrosis in Kunming mouse assessed as loss of inflammatory cells at 40 mg/kg, po administered for 2 weeks post CCl-4 challenge by hematoxylin and eosin staining based light microscopic analysis. It counts as functional, organism-based.
Test [11] has as its system Mus musculus. The experiment in a line: Antifibrotic activity against CCl4-induced fibrosis in Kunming mouse assessed as decrease in fiber accumulation at 20 mg/kg, po administered for 2 weeks post CCl-4 challenge by hematoxylin and eosin staining based light microscopic analysis. It counts as functional, organism-based.
Test [12] concerns Mus musculus. The experiment in a line: Antifibrotic activity against CCl4-induced fibrosis in Kunming mouse assessed as loss of inflammatory cells at 40 mg/kg, po administered for 2 weeks post CCl-4 challenge by Masson staining based light microscopic analysis. It counts as functional, organism-based.
Test [13] deals with Mus musculus. Briefly: Antifibrotic activity against CCl4-induced fibrosis in Kunming mouse assessed as decrease in inflammatory cells infiltration at 20 mg/kg, po administered for 2 weeks post CCl-4 challenge by hematoxylin and eosin staining based light microscopic analysis. It counts as functional, organism-based.
In test [14] the test system is Mus musculus. The experiment in a line: Antifibrotic activity against CCl4-induced fibrosis in Kunming mouse assessed as loss of fiber accumulation at 40 mg/kg, po administered for 2 weeks post CCl-4 challenge by hematoxylin and eosin staining based light microscopic analysis. It counts as functional, organism-based.
The subject of test [15] is Mus musculus. Briefly: Antifibrotic activity against CCl4-induced fibrosis in Kunming mouse assessed as decrease in inflammatory cells infiltration at 20 mg/kg, po administered for 2 weeks post CCl-4 challenge by Masson staining based light microscopic analysis. It counts as functional, organism-based.
The test system of test [16] is Mus musculus. Briefly: Antifibrotic activity against CCl4-induced fibrosis in Kunming mouse assessed as decrease in fiber accumulation at 20 mg/kg, po administered for 2 weeks post CCl-4 challenge by Masson staining based light microscopic analysis. It counts as functional, organism-based.
Test [17] concerns Mus musculus. Briefly: Antifibrotic activity against CCl4-induced fibrosis in Kunming mouse assessed as decrease in steatosis at 20 mg/kg, po administered for 2 weeks post CCl-4 challenge by Mason staining based light microscopic analysis. It counts as functional, organism-based.
Test [18] concerns Mus musculus. Briefly: Antifibrotic activity against CCl4-induced fibrosis in Kunming mouse assessed as loss of bile ductules at 40 mg/kg, po administered for 2 weeks post CCl-4 challenge by Masson staining based light microscopic analysis. It counts as functional, organism-based.
Test [19] concerns the target T1, Autotaxin. Briefly: Inhibition of human ATX using FS-3 as substrate measured after 30 mins by fluorescence plate reader assay.

The source made the active and inactive calls. No cut-off for these calls is given here.

Usually inhibition stands for the drop in the measured response relative to a control, in per cent. The IC50 is the concentration at which inhibition is half-maximal. Regarding `CS(=O)(=O)c1ccc(/C=N/NC(=O)N2CCc3ncnc(Nc4cccc(Br)c4)c3C2)cc1`, the values for the inhibition at 10 µM in [1] and in test [3] were 43.7% and 55%, respectively. Besides, at Autotaxin [2], the midpoint of inhibition, the IC50, lay at 34.7 nM.

Turning to `O=C(N/N=C/c1ccc(O)c(Br)c1)N1CCc2ncnc(Nc3ccc(F)c(Cl)c3)c2C1`, the inhibition at 10 µM was determined as 69% in test [1] and 72% in test [3]. On Autotaxin [2], this compound came in with a 50% inhibitory concentration (IC50) of 31.3 nM.

Consider `CS(=O)(=O)c1ccc(/C=N/NC(=O)N2CCc3ncnc(Nc4ccc(F)c(Cl)c4)c3C2)cc1`, for which the inhibition at 10 µM in [1] is 66.2%; in test [3] it was 60.3%. The 50% inhibitory concentration (IC50) on Autotaxin [2] was 21 nM.

Consider `O=C(N/N=C/c1cccc(C(F)(F)F)c1)N1CCc2ncnc(Nc3cccc(Br)c3)c2C1`, for which the values for the inhibition at 10 µM in test [1] and in test [3] were 51.8% and 64.8%, respectively. This compound also had an IC50 against Autotaxin [2] of 30.2 nM.

As to `O=C(N/N=C/c1ccc(Cl)cc1Cl)N1CCc2ncnc(Nc3cccc(C(F)(F)F)c3)c2C1`, the inhibition at 10 µM in [1] came to 58.5%; in test [3] it was 66.3%. This compound also had a half-inhibitory concentration (IC50) at Autotaxin [2] of 33.9 nM.

Consider `Cc1cc(C)c(/C=N/NC(=O)N2CCc3ncnc(Nc4ccc(F)c(Cl)c4)c3C2)c(C)c1`, for which the inhibition at 10 µM in test [1] was 54%; in test [3] it was 58.1%.

In the case of `O=C(N/N=C/c1cc([N+](=O)[O-])ccc1Cl)N1CCc2ncnc(Nc3ccc(F)c(Cl)c3)c2C1`, the values for the inhibition at 10 µM in test [1] and in test [3] were 72.1% and 74.7%, respectively. This compound displayed a 50% inhibitory concentration (IC50) on Autotaxin [2] of 43.8 nM.

As to `CS(=O)(=O)c1ccc(/C=N/NC(=O)N2CCc3ncnc(Nc4cccc(C(F)(F)F)c4)c3C2)cc1`, the inhibition at 10 µM in test [1] was 45.9%; in [3] it was 61.5%. Also, at Autotaxin [2], the IC50 came to 35.8 nM.

On to `O=C(N/N=C/c1cc(C(F)(F)F)cc(C(F)(F)F)c1)N1CCc2ncnc(Nc3cccc(C(F)(F)F)c3)c2C1`, for which the inhibition at 10 µM in [1] came to 42.5%; in [3], 62.9%.

On to `Cc1ccc(/C=N/NC(=O)N2CCc3ncnc(Nc4cccc(C(F)(F)F)c4)c3C2)cc1`, for which the results for the inhibition at 10 µM in test [1] and in test [3] were 72.6% and 77.2%, respectively. For the same compound, the concentration for half-maximal inhibition (IC50) in [4] came to 1140 nM; against Autotaxin [2], 29.1 nM; in test [5], 1510 nM.

As to `O=C(N/N=C/c1cc(C(F)(F)F)cc(C(F)(F)F)c1)N1CCc2ncnc(Nc3cccc(Br)c3)c2C1`, the inhibition at 10 µM was determined as 70.1% in test [1] and 62.1% in [3]. The half-maximal inhibitory concentration (IC50) at Autotaxin [2] is 29.1 nM.

Take `O=C(N/N=C/c1ccc(F)cc1Cl)N1CCc2ncnc(Nc3cccc(C(F)(F)F)c3)c2C1`: the inhibition at 10 µM amounted to 55.2% in test [1] and 70.6% in test [3]. The compound further yielded an IC50 on Autotaxin [2] of 26.9 nM.

As for `O=C(N/N=C/c1cccnc1)N1CCc2ncnc(Nc3cccc(C(F)(F)F)c3)c2C1`, the inhibition at 10 µM amounted to 41.2% in test [1] and 63.2% in [3].

As to `O=C(N/N=C/c1ccc[nH]1)N1CCc2ncnc(Nc3cccc(C(F)(F)F)c3)c2C1`, the inhibition at 10 µM in [1] was determined as 51.3%; in test [3], 68.8%.

For the compound `O=C(N/N=C/c1cccc(Br)c1)N1CCc2ncnc(Nc3cccc(C(F)(F)F)c3)c2C1`, the inhibition at 10 µM amounted to 54.6% in [1] and 68.1% in test [3]. The concentration for half-maximal inhibition (IC50) against Autotaxin [2] was 35.3 nM.

For the compound `O=C(N/N=C/c1ccc(OC(F)(F)F)cc1)N1CCc2ncnc(Nc3cccc(C(F)(F)F)c3)c2C1`, the inhibition at 10 µM in test [1] is 67.1%; in test [3], 65%. On Autotaxin [2], this compound yielded an IC50 of 41.2 nM.

On to `O=C(N/N=C/c1cc(F)c(F)cc1Cl)N1CCc2ncnc(Nc3cccc(Br)c3)c2C1`, for which the inhibition at 10 µM in test [1] was found to be 41.7%; in [3], 56.7%.

As to `O=C(N/N=C/c1ccc(Cl)cc1)N1CCc2ncnc(Nc3cccc(Br)c3)c2C1`, the inhibition at 10 µM in test [1] was 61.1%; in test [3], 72.5%. On Autotaxin [2], this compound displayed an IC50 of 27.5 nM.

As to `O=C(N/N=C/c1ccc(Cl)cc1)N1CCc2ncnc(Nc3ccc(F)c(Cl)c3)c2C1`, the values for the inhibition at 10 µM in test [1] and in test [3] were 81.5% and 79.4%, respectively. The result in the test with Cardiac fibroblast was Active. Also, the values for the IC50 (in test [4]; against Autotaxin [2]; in [5]) were 1100 nM, 24.2 nM and 870 nM, respectively. For the same compound, the Activity in test [6] worked out at 74.4%.

Regarding `O=C(N/N=C/c1ccc(Cl)cc1)N1CCc2ncnc(Nc3cccc(C(F)(F)F)c3)c2C1`, the outcome in the test with Mus musculus [7], in the test with Mus musculus [8], in the test with Mus musculus [9], in the test with Mus musculus [10], in the test with Mus musculus [11] and in the test with Mus musculus [12] was Active. For the same compound, the outcome in the test on Cardiac fibroblast, in the test on Mus musculus [13], in the test on Mus musculus [14], in the test with Mus musculus [15], with Mus musculus [16] and in the test with Mus musculus [17] was Active. Further, the outcome in the test on Mus musculus [18] was Active. Moreover, the values for the inhibition at 10 µM in test [1] and in [3] were 73.8% and 83.7%, respectively. The IC50 in test [4] was found to be 780 nM; against Autotaxin [2] it was 15.3 nM; in test [5] it was 1210 nM.

Regarding `O=C(N/N=C/c1ccc(F)c(Cl)c1)N1CCc2ncnc(Nc3cccc(Br)c3)c2C1`, the inhibition at 10 µM in test [1] stood at 45.1%; in [3], 60.3%.

For `O=C(N/N=C/c1ccco1)N1CCc2ncnc(Nc3cccc(C(F)(F)F)c3)c2C1`, the inhibition at 10 µM in test [1] was found to be 54.1%; in test [3], 71.5%.

Consider `O=C(CCc1nc2ccccc2s1)N1CCc2ncnc(Cc3ccc(F)cc3)c2C1`, for which the results for the inhibition at 10 µM in test [1] and in test [3] were 68.4% and 73.8%, respectively. Further, the IC50 against Autotaxin [19] was determined as 29.1 nM; against Autotaxin [2] it was 10.4 nM.

As to `Cc1ccc(/C=N/NC(=O)N2CCc3ncnc(Nc4cccc(Br)c4)c3C2)cc1C`, the inhibition at 10 µM in [1] was 41.7%; in [3], 49.2%.

As to `O=C(N/N=C/c1ccc(OC(F)(F)F)cc1)N1CCc2ncnc(Nc3cccc(Br)c3)c2C1`, the inhibition at 10 µM in test [1] was 48.8%; in test [3] it was 54.8%.

For `O=C(N/N=C/c1ccccc1)N1CCc2ncnc(Nc3cccc(C(F)(F)F)c3)c2C1`, the inhibition at 10 µM in test [1] was 48.3%; in [3], 57.4%.
